Experimental data reported in ChEMBL document CHEMBL4007488, “Amphiphilic Indole Derivatives as Antimycobacterial Agents: Structure-Activity Relationships and Membrane Targeting Properties” (J Med Chem, 2017).

What was measured:
Assay type in all cases: functional
[1] = test system: Mycobacterium tuberculosis variant bovis BCG; assay: Ratio of MBC99.9 to MIC90 for Mycobacterium bovis BCG ATCC 35734
[2] = test system: Mycobacterium tuberculosis variant bovis BCG; assay: Ratio of WCC99.9 for Mycobacterium bovis BCG ATCC 35734 under low-oxygen tension conditions to MBC99.9 for Mycobacterium bovis BCG ATCC 35734
[3] = test system: Mycobacterium tuberculosis variant bovis BCG; assay: Ratio of WCC99.9 for Mycobacterium bovis BCG ATCC 35734 under low-oxygen tension conditions to MIC90 for Mycobacterium bovis BCG ATCC 35734

CCCCCCCCn1cc(CN2CCCCCC2)c2c(F)cccc21
Ratio [1]: 2
Ratio [2]: >2
Ratio [3]: >4
